Assays:
UMSCC49 cells = experiment: CellTiter-Glo viability, UMSCC49 parental and NOTCH1 KO; type: cell-based, human; settings: 72 hours
Procedure: FIGS. 9A-9D: NOTCH1 knockout (KO) sensitizes two NOTCH1^WT head and neck squamous cell carcinoma (HNSCC) cell lines to PI3K/mTOR pathway inhibition in vitro. Two NOTCH1^WT HNSCC cell lines (PJ34 and UMSCC49 [UM49]), parental cell lines, and NOTCH1 KO cell lines were treated with PI3K/mTOR pathway inhibitors. FIG. 9A. The CellTiter-Glo assay was used to assess the viability of cells treated for 72 hours with the indicated concentrations of GSK2126458 (GSK212). FIG. 9B. Western blot analysis of apoptosis markers, NOTCH1, and NOTCH intracellular domain (NICD) was performed after treatment with the indicated concentrations of GSK212 for 48 hours. FIG. 9C. Apoptosis in cells treated with 50 nM GSK212 or 200 nM BEZ235 for 48 hours was measured using an Annexin V/propidium iodide assay. Values are the means±standard deviations of three independent experiments. *p<0.05, unpaired two-tailed Student t-test. FIG. 9D. […] Colony areas as percentages of the control were measured using ImageJ. […]
Cell viability assay. […] Inhibitory concentration (ICs) and area under the curve (AUC) values were calculated using the drexplorer R package with a best-fit dose-response model (Zumsteg et al., 2016). The combination indices were calculated using the Chou-Talalay method (Cal et al., 2017) in CalcuSyn (Biosoft, Cambridge, UK). […]

HNSCC cell lines = experiment: Colony formation assay; type: cell-based, human; settings: 48 hours treatment, 14-21 days, NOTCH1MUT compared with NOTCH1WT lines, below peak plasma concentration
Procedure: FIGS. 7A-7D: PI3K/mTOR signaling inhibition induces cell death in NOTCH1^MUT but not NOTCH1^WT head and neck squamous cell carcinoma (HNSCC) cell lines in vitro. FIG. 7A. Annexin V/propidium iodide or BrDU-terminal deoxynucleotidyl transferase (TdT) dUTP nick-end labeling (TUNEL) assays were used to measure apoptosis in HNSCC cells with the indicated NOTCH1 and PIK3CA mutations, which were treated with 50 nM GSK2126458 (GSK212) for 24 or 48 hours, respectively. Values are the means±standard deviations of three independent experiments. *p<0.05, unpaired two-tailed Student t-test. FIG. 7B. […] At 14-21 days after treatment, the cells were fixed and stained, images were captured using the GelCount Tumour Colony Counter, and colony numbers and the colorimetric intensity of the colonies were determined by measuring the optical density (OD) at 570 nm. […] Three NOTCH1^WT lines (black text and bars) and three NOTCH1^MUT lines (red text and bars) were treated with increasing concentrations of GSK212 for 4 hours, and levels of PI3K/mTOR pathway proteins were measured by Western blot analysis.
Colony formation assays. […] The total colony number and area were counted and analyzed using the ImageJ software program (National Institutes of Health, Bethesda, MD). […]

For COc1ncc(-c2ccc3nccc(-c4ccnnc4)c3c2)cc1NS(=O)(=O)c1ccc(F)cc1F [GSK2126458], the IC70 (UMSCC49 cells; UMSCC49 NOTCH1 KO) was 360 nM, the IC70 (UMSCC49 cells; UMSCC49 parental) was 1480 nM and the “number of colonies formed and total cell number” value (HNSCC cell lines) was “significantly reduced”.
